Experimental data as given in patent US20230183798A1, “COMPOSITIONS AND METHODS FOR MODIFYING POLYMERASE-NUCLEIC ACID COMPLEXES” (Pacific Biosciences of California, Inc., priority 2020, published 2023).

Legend:
[1] = tested on: polymerase-nucleic acid complexes (ternary complexes); assay: Stripping nucleotides from ternary complexes: crosstalk metrics after NSB wash in 2x2 examination sequencing; format: biochemical; conditions: for Capability of stripping nucleotides from ternary complexes while retaining polymerase on primed-template nucleic acid: candidate in NSB; for Overall performance of NSB having candidate vs NSB having isopropanol: vs 20% v/v isopropanol (SOP) NSB; for A_T crosstalk (Cy5-dATP carryover from first exam into second exam) compared to NSB having isopropanol / C_G crosstalk (carryover of C signal from first exam into G channel of second exam) compared to NSB having isopropanol: alternating cycles vs 20% v/v isopropanol (SOP); for Concentration range in NSB found effective: other concentrations tested in addition to Table 1
Experimental: Template nucleic acid strands synthesized in 12 PCR reactions were prepared, and then independently bound to beads. […] Beads harboring immobilized template strands were then attached to the inner surface of a flow cell. Sequencing was performed for 22 cycles, where each cycle included subroutines for (i) Extension: adding a reversibly terminated nucleotide to primers that were hybridized to the immobilized templates, (ii) Examination: forming and detecting stabilized ternary complexes on the reversibly terminated, immobilized primer-template hybrids, and (iii) Activation: cleaving the reversible terminator from the extended primers.
The Examination subroutine was performed in a 2×2 format as diagrammed in FIG. 1. Specifically, a mixture of Cy5 labelled dATP, Cy7 labelled dCTP, unlabeled dTTP and unlabeled dGTP was delivered to the flow cell that contained polymerase-nucleic acid complexes on the beads, the system paused fluid flow to allow nucleotides to bind at cognate positions of the templates, thereby forming ternary complexes. Free nucleotide was removed from the flow cell by flowing IMG reagent. […] The flow cell was then imaged via fluorescence microscopy to detect ternary complexes that contained a labeled nucleotide that was a cognate for the next correct nucleotide in each of the template nucleic acids. The flow cell was then washed with NSB solutions having various compositions as set forth below. After the NSB wash, a mixture of Cy5 labelled dTTP, Cy7 labelled dGTP, unlabeled dCTP and unlabeled dATP was delivered to the flow cell, and the system paused fluid flow to allow nucleotides to bind, thereby forming ternary complexes. Free nucleotide was removed by flowing IMG reagent and then the flow cell was again imaged.
The concentrations are provided as a percentage in weight of compound per total volume of NSB (w/v) or volume of compound per total volume of NSB (v/v). The concentration can also be expressed as a molar concentration and this can be helpful, for example, as a way to compare the amounts of each compound tested. […] The molar concentrations of 1,5 pentanediol, propylene glycol, hexylene glycol, sulfolane, DMSO, ethyl methyl sulfone and 2-mthoxy ethanol in NSB were similar to the molar concentration of isopropanol in the SOP NSB.
The effectiveness of each candidate compound was determined from the following crosstalk metrics. The A_T crosstalk metric indicates how much Cy5-dATP is carried over from the first exam such that it is detected in the second exam. Similarly, the C_G crosstalk metric indicates how much Cy7-dCTP is carried over from the first exam such that it is detected in the second exam. A lower value for the crosstalk metric indicates less carryover and is correlated with improved sequencing results. On the other hand, a higher value for the crosstalk metric indicates more carryover and lower quality sequencing results.
Results were evaluated as a comparison of crosstalk metrics measured for NSB having 20% v/v/isopropanol (SOP) compared to the crosstalk metric measured for NSB having each of the respective candidate compounds. In all cases, the comparisons were based on data obtained for sequencing runs performed in a single lane of a flow cell. The format of the run was as follows: Cycle_1(SOP)=>Cycle_2(candidate)=>Cycle_3(SOP)=>Cycle_4(candidate) and so on. The crosstalk metric was determined separately for the SOP and candidate cycles, respectively. This format was used to minimize the confounding influence of run-to-run variations when comparing between SOP and each candidate.

[2] = Stability of NSB fluid foam in a flow cell; format: physicochemical; conditions: 28% 1,6 hexanediol or 20% isopropanol, 55° C., images before and after 1 minute pause in flow
Experimental: NSB fluid foam having 20% isopropanol (SOP) or 28% 1,6 hexanediol was flowed through a flow cell (40 μl/s flow rate, 300 μl volume, 35 psi positive pressure, 55° C.). The flow was paused and a first image of the foam was acquired immediately. The foam was allowed to sit for 60 seconds and then a second image was taken.

[3] = Solubility of candidate compound in NSB; format: physicochemical; conditions: NSB solution
[4] = NSB with candidate at Table 1 concentration, lower = less carryover

CC(O)CCO (stereo not drawn) [1,3 butanediol]
Capability of stripping nucleotides from ternary complexes while retaining polymerase on primed-template nucleic acid [1]: capable of stripping nucleotides from ternary complexes while retaining polymerase association with primed-template nucleic acid | Overall performance of NSB having candidate vs NSB having isopropanol [1]: did not perform as well as isopropanol

OCCCCCO [1,5 pentanediol]
A_T crosstalk (Cy5-dATP carryover from first exam into second exam) compared to NSB having isopropanol [1, 4]: stronger | C_G crosstalk (carryover of C signal from first exam into G channel of second exam) compared to NSB having isopropanol [1, 4]: stronger | A_T crosstalk metric [1, 4]: about 0.16 | C_G crosstalk metric [1, 4]: about 0.16

OCCCCCCO [1,6 hexanediol]
A_T crosstalk (Cy5-dATP carryover from first exam into second exam) compared to NSB having isopropanol [1, 4]: modestly lower | C_G crosstalk (carryover of C signal from first exam into G channel of second exam) compared to NSB having isopropanol [1, 4]: significantly lower | Concentration range in NSB found effective [1]: 10-31% | Overall performance of NSB having candidate vs NSB having isopropanol [1]: outperformed NSB having isopropanol | Flammability (Flammability): non-flammable | Foam stability [2]: greater foam stability

OCCCCCCCO [1,7 heptanediol]
A_T crosstalk (Cy5-dATP carryover from first exam into second exam) compared to NSB having isopropanol [1, 4]: better | C_G crosstalk (carryover of C signal from first exam into G channel of second exam) compared to NSB having isopropanol [1, 4]: better | Overall performance of NSB having candidate vs NSB having isopropanol [1]: outperformed NSB having isopropanol

OCCCCCCCCO [1,8 octanediol]
Solubility in NSB [3]: not immediately soluble

COCCO [2-methoxy ethanol]
Capability of stripping nucleotides from ternary complexes while retaining polymerase on primed-template nucleic acid [1]: can also be useful

NCCCO [3-Amino-1-propanol]
Capability of stripping nucleotides from ternary complexes while retaining polymerase on primed-template nucleic acid [1]: can also be useful

C[S+](C)[O-] [DMSO, dimethyl sulfoxide]
A_T crosstalk (Cy5-dATP carryover from first exam into second exam) compared to NSB having isopropanol [1, 4]: stronger | A_T crosstalk metric [1, 4]: below 0.35 | Concentration range in NSB found effective [1]: 21-26%

CC(C)O [Isopropanol, reference compound]
Concentration range in NSB found effective [1]: 16-20% | Foam stability [2]: foam can be maintained to some degree

CC(O)CO (stereo not drawn) [Propylene glycol]
Capability of stripping nucleotides from ternary complexes while retaining polymerase on primed-template nucleic acid [1]: capable of stripping nucleotides from ternary complexes while retaining polymerase association with primed-template nucleic acid | Overall performance of NSB having candidate vs NSB having isopropanol [1]: did not perform as well as isopropanol

CCS(C)(=O)=O [ethyl methyl sulfone]
A_T crosstalk (Cy5-dATP carryover from first exam into second exam) compared to NSB having isopropanol [1, 4]: stronger | A_T crosstalk metric [1, 4]: below 0.2 | Concentration range in NSB found effective [1]: 1.4-2.8%

O=S1(=O)CCCC1 [sulfolane]
A_T crosstalk (Cy5-dATP carryover from first exam into second exam) compared to NSB having isopropanol [1, 4]: comparable | C_G crosstalk (carryover of C signal from first exam into G channel of second exam) compared to NSB having isopropanol [1, 4]: better | Overall performance of NSB having candidate vs NSB having isopropanol [1]: outperformed NSB having isopropanol

hexylene glycol
Capability of stripping nucleotides from ternary complexes while retaining polymerase on primed-template nucleic acid [1]: capable of stripping nucleotides from ternary complexes while retaining polymerase association with primed-template nucleic acid | Overall performance of NSB having candidate vs NSB having isopropanol [1]: did not perform as well as isopropanol
